This data set in a line: pH screen stability of prednisolone acetate oral suspension (HPLC). It counts as physicochemical. The settings on record: pH range of 5.0 to 6.2. The protocol: NaOH was added to the portions to give various pH values (Batch A-E) and packaged in 4 ounce amber PETG bottles. The samples were left at the environmentally stressed conditions of 40° centigrade or 50° centigrade for one month. HPLC methods were used to measure the percent of prednisolone acetate retained in the bottle.

With `CC(=O)OCC(=O)[C@@]1(O)CC[C@H]2[C@@H]3CCC4=CC(=O)C=C[C@]4(C)[C@H]3[C@@H](O)C[C@@]21C` [Prednisolone acetate, prednisolone acetate], the “Stability as a function of pH” value is on record as “more stable at the lower pH values”.

For the origin of these results see US8461139B2 (Taro Pharmaceuticals North America, Inc., priority 2005, dated 2013).
